Laboratory results published in patent US11919965B2, “Methods of treating multiple myeloma with bispecific anti-BCMA x anti-CD3 antibodies” (Regeneron Pharmaceuticals, Inc., priority 2019, dated 2024).

Experiments:
monkey BCMA-MMH = test: SPR (Biacore 4000) binding kinetics at 25° C.
Description: (§1) The CM5 Biacore sensor surface was derivatized by amine coupling with a monoclonal mouse anti-human Fc antibody (GE, #BR-1008-39) to capture purified anti-BCMA mAbs and anti-BCMA×anti-CD3 bispecific mAbs. All Biacore binding studies were performed in a buffer composed of 0.01M HEPES pH 7.4, 0.15M NaCl, 3 mM EDTA, 0.05% v/v Surfactant P20 (HBS-ET running buffer). […] Antigen samples were then injected over the anti-BCMA and anti-BCMA×anti-CD3 bispecific mAbs captured surfaces at a flow rate of 30 μL/minute. Antibody-reagent association was monitored for 5 minutes while dissociation in HBS-ET running buffer was monitored for 10 minutes. All of the binding kinetics experiments were performed at 25° C. Kinetic association (ka) and dissociation (kd) rate constants were determined by fitting the real-time sensorgrams to a 1:1 binding model using Scrubber 2.0c curve fitting software. Binding dissociation equilibrium constants (KD) and dissociative half-lives (t1/2) were calculated from the kinetic rate constants as: […]

monkey BCMA-MFC = test: SPR (Biacore 4000) binding kinetics at 25° C.
Description: as §1

[1] = system: BCMA-expressing MOLP-8 multiple myeloma tumors; test: Xenogenic tumor model, MOLP-8 + human PBMC s.c. in NSG mice, dose response (Example 13); format: in vivo, mouse
Description: To determine the in vivo efficacy of anti-BCMA×anti-CD3 bispecific antibodies (Abs), a xenogenic tumor study was performed. Immunodeficient NOD.Cg-Prkdc^scidII2rg^tm1Wjl/SzJ (NSG) mice were subcutaneously implanted with a mixture of 5×10^6 BCMA-expressing MOLP-8 human multiple myeloma tumor cells and 1×10^6 human peripheral blood mononuclear cells (PBMC) isolated from a normal, healthy donor. […] The mice were administered these Abs twice per week for a total of seven doses, and tumor growth was assessed over 56 days. While the BCMA+ MOLP-8 tumors grew similarly in the vehicle- and CD3-binding control-treated mice, both BCMA×CD3 Abs that were tested prevented the growth of tumors in a dose-dependent manner in vivo.
Implantation and measurement of xenogenic tumors: NSG mice were subcutaneously implanted with a mixture of 5×10^6 BCMA-expressing MOLP-8 multiple myeloma cells and 1×10^6 PBMC derived from a normal, healthy donor. […] The mice were administered Abs twice per week for a total of seven doses. Tumor growth was measured by caliper twice per week for the duration of the experiment.
(§2) Calculation of xenogenic tumor growth and inhibition: In order to determine tumor volume by external caliper, the greatest longitudinal diameter (length in mm) and the greatest transverse diameter (width in mm) were determined. Tumor volumes based on caliper measurements were calculated by the formula: Volume (mm^3)=(length× width^2)/2.

[2] = system: BCMA-expressing NCI-H929 multiple myeloma tumors; test: Xenogenic tumor model, NCI-H929 + human PBMC s.c. in NSG mice, treatment from implantation (Example 10); format: in vivo, mouse; conditions: 4 mg/kg
Description: To determine the in vivo efficacy of BCMA×CD3 bispecific antibodies (Abs), a xenogenic tumor study was performed. Immunodeficient NOD.Cg-Prkdc^scidII2rgtm1Wjl/SzJ (NSG) mice were subcutaneously implanted with a mixture of 10×10^6 BCMA-expressing NCI-H929 multiple myeloma cells and 0.5×10^6 human peripheral blood mononuclear cells (PBMC) isolated from a normal donor. […] The mice were administered Abs twice per week for a total of three weeks, and tumor growth was assessed over 40 days. While BCMA^+ tumors grew similarly in the vehicle-, isotype control-, and CD3-binding control-treated mice, both BCMA×CD3 Abs that were tested prevented the growth of tumors in vivo.
Implantation and measurement of syngeneic tumors: NSG mice were subcutaneously implanted with a mixture of 10×10^6 BCMA-expressing NCI-H929 multiple myeloma cells and 0.5×10^6 PBMC derived from a normal donor. […] The mice were administered Abs twice per week for a total of three weeks. Tumor growth was measured with calipers twice per week for the duration of the experiment. Mice were sacrificed 40 days after tumor implantation.
as §2, with “syngeneic” for “xenogenic”

Sequence of monkey BCMA-MFC (as listed by the source): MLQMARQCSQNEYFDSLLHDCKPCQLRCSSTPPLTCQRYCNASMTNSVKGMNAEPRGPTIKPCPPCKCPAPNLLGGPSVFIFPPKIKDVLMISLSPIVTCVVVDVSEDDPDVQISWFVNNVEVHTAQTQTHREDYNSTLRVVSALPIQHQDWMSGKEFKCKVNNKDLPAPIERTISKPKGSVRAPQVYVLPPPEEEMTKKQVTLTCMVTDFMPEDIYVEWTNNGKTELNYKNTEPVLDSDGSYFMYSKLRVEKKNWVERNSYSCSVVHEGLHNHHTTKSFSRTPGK
Sequence of monkey BCMA-MMH (as listed by the source): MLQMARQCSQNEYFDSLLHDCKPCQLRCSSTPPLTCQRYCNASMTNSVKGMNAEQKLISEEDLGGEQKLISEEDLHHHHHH

REGN5458: anti-BCMA×anti-CD3 bispecific antibody: mAb21581 BCMA heavy chain, mAb7221G CD3 heavy chain and common light chain; SEQ ID NOs 126, 127, 129
ka (monkey BCMA-MMH): 182000 M⁻¹ s⁻¹
kd (monkey BCMA-MMH): 0.00909 s⁻¹
ka (monkey BCMA-MFC): 528000 M⁻¹ s⁻¹
kd (monkey BCMA-MFC): 8.8e-05 s⁻¹
Average Tumor Size (mm3) ± SEM on Day 3 ([1]; 0.04 mg/kg): 9.3 ± 2.4 mm3
Average Tumor Size (mm3) ± SEM on Day 7 ([1]; 0.04 mg/kg): 18.3 ± 5.0 mm3
Average Tumor Size (mm3) ± SEM on Day 10 ([1]; 0.04 mg/kg): 73.9 ± 25.7 mm3
Average Tumor Size (mm3) ± SEM on Day 14 ([1]; 0.04 mg/kg): 255.4 ± 79.7 mm3
Average Tumor Size (mm3) ± SEM on Day 17 ([1]; 0.04 mg/kg): 494.3 ± 144.3 mm3
Average Tumor Size (mm3) ± SEM on Day 21 ([1]; 0.04 mg/kg): 1373.0 ± 366.6 mm3
Average Tumor Size (mm3) ± SEM on Day 23 ([1]; 0.04 mg/kg): 1882.3 ± 551.5 mm3
Average Tumor Size (mm3) ± SEM on Day 28 ([1]; 0.04 mg/kg): 2542.5 ± 613.3 mm3
Average Tumor Size (mm3) ± SEM on Day 31 ([1]; 0.04 mg/kg): 2906.1 ± 532.6 mm3
Average Tumor Size (mm3) ± SEM on Day 35 ([1]; 0.04 mg/kg): 3538.0 ± 0.0 mm3
Average Tumor Size (mm3) ± SEM on Day 3 ([1]; 0.4 mg/kg): 13.5 ± 1.5 mm3
Average Tumor Size (mm3) ± SEM on Day 7 ([1]; 0.4 mg/kg): 1.0 ± 1.0 mm3
Average Tumor Size (mm3) ± SEM on Day 10 ([1]; 0.4 mg/kg): 0 ± 0 mm3
Average Tumor Size (mm3) ± SEM on Day 14 ([1]; 0.4 mg/kg): 0 ± 0 mm3
Average Tumor Size (mm3) ± SEM on Day 17 ([1]; 0.4 mg/kg): 1.7 ± 1.7 mm3
Average Tumor Size (mm3) ± SEM on Day 21 ([1]; 0.4 mg/kg): 5.3 ± 5.3 mm3
Average Tumor Size (mm3) ± SEM on Day 23 ([1]; 0.4 mg/kg): 9.7 ± 9.7 mm3
Average Tumor Size (mm3) ± SEM on Day 28 ([1]; 0.4 mg/kg): 47.4 ± 47.4 mm3
Average Tumor Size (mm3) ± SEM on Day 31 ([1]; 0.4 mg/kg): 104.7 ± 92.6 mm3
Average Tumor Size (mm3) ± SEM on Day 35 ([1]; 0.4 mg/kg): 375.1 ± 307.5 mm3
Average Tumor Size (mm3) ± SEM on Day 42 ([1]; 0.4 mg/kg): 968.8 ± 689.2 mm3
Average Tumor Size (mm3) ± SEM on Day 56 ([1]; 0.4 mg/kg): 1742.4 ± 635.2 mm3
Average Tumor Size (mm3) ± SEM on Day 3 ([1]; 4 mg/kg): 12.5 ± 1.3 mm3
Average Tumor Size (mm3) ± SEM on Day 7 ([1]; 4 mg/kg): 0 ± 0 mm3
Average Tumor Size (mm3) ± SEM on Day 10 ([1]; 4 mg/kg): 0 ± 0 mm3
Average Tumor Size (mm3) ± SEM on Day 14 ([1]; 4 mg/kg): 0 ± 0 mm3
Average Tumor Size (mm3) ± SEM on Day 17 ([1]; 4 mg/kg): 14.5 ± 7.3 mm3
Average Tumor Size (mm3) ± SEM on Day 21 ([1]; 4 mg/kg): 102.7 ± 66.2 mm3
Average Tumor Size (mm3) ± SEM on Day 23 ([1]; 4 mg/kg): 193.3 ± 117.7 mm3
Average Tumor Size (mm3) ± SEM on Day 28 ([1]; 4 mg/kg): 627.4 ± 318.1 mm3
Average Tumor Size (mm3) ± SEM on Day 31 ([1]; 4 mg/kg): 1018.5 ± 498.3 mm3
Average Tumor Size (mm3) ± SEM on Day 35 ([1]; 4 mg/kg): 1342.9 ± 629.6 mm3
Average Tumor Size (mm3) ± SEM on Day 42 ([1]; 4 mg/kg): 2363.0 ± 890.2 mm3
Average Tumor Size (mm3) ± SEM on Day 49 ([1]; 4 mg/kg): 1683.5 ± 1683.5 mm3
Average Tumor Size (mm3) ± SEM on Day 56 ([1]; 4 mg/kg): 3108.1 ± 3108.1 mm3
Average Tumor Size (mm3) ± SEM on Day 4 [2]: 39.5 ± 9.1 mm3
Average Tumor Size (mm3) ± SEM on Day 7 [2]: 0 ± 0 mm3
Average Tumor Size (mm3) ± SEM on Day 11 [2]: 0 ± 0 mm3
Average Tumor Size (mm3) ± SEM on Day 14 [2]: 0 ± 0 mm3
Average Tumor Size (mm3) ± SEM on Day 18 [2]: 0 ± 0 mm3
Average Tumor Size (mm3) ± SEM on Day 21 [2]: 0 ± 0 mm3
Average Tumor Size (mm3) ± SEM on Day 28 [2]: 0 ± 0 mm3
Average Tumor Size (mm3) ± SEM on Day 40 [2]: 0 ± 0 mm3
